US20240174727A1, “LONG-ACTING NATRIURETIC PEPTIDES AND USES THEREOF” (Eli Lilly and Company, priority 2022, published 2024)
Read-outs that look alike come from different tables or passages of the source. Numbered stars: 1 amine (or outer) side, 2 acyl side, 3 side chain; on linkers, the order of the positions; unused ones are H or OH. Bridge positions count the residues as written; N and C are the ends. Square brackets hold non-standard residues; d marks the D form. Peptide text beside a SMILES is read from it. * marks the point of attachment. PEG24 = NCCOCCOCCOCCOCCOCCOCCOCCOCCOCCOCCOCCOCCOCCOCCOCCOCCOCCOCCOCCOCCOCCOCCOCCOCCC(=O)O; C20 diacid = O=C(O)CCCCCCCCCCCCCCCCCCC(=O)*; γGlu = O=C(O)[C@H](CCC(=O)[*:2])N[*:1]; 4Pal = N[C@@H](Cc1ccncc1)C(=O)O; Dap = NC[C@H](N)C(=O)O; CH2 = C([*:1])[*:2]; βAla = NCCC(=O)O

Molecular target: T1, human NPRA (Homo sapiens, UniProt P16066)
T1 construct: Full-Length cDNA Cloning and Generation of Cell Lines Overexpressing Natriuretic Peptide Receptors (NPRs); expressed in transfected cells; host or cells: Jump-in T-Rex HEK293 cells, pJTI R4 CMV-TO MCS pA vector, tetracycline induction
T1 sequence (P16066 33-1061): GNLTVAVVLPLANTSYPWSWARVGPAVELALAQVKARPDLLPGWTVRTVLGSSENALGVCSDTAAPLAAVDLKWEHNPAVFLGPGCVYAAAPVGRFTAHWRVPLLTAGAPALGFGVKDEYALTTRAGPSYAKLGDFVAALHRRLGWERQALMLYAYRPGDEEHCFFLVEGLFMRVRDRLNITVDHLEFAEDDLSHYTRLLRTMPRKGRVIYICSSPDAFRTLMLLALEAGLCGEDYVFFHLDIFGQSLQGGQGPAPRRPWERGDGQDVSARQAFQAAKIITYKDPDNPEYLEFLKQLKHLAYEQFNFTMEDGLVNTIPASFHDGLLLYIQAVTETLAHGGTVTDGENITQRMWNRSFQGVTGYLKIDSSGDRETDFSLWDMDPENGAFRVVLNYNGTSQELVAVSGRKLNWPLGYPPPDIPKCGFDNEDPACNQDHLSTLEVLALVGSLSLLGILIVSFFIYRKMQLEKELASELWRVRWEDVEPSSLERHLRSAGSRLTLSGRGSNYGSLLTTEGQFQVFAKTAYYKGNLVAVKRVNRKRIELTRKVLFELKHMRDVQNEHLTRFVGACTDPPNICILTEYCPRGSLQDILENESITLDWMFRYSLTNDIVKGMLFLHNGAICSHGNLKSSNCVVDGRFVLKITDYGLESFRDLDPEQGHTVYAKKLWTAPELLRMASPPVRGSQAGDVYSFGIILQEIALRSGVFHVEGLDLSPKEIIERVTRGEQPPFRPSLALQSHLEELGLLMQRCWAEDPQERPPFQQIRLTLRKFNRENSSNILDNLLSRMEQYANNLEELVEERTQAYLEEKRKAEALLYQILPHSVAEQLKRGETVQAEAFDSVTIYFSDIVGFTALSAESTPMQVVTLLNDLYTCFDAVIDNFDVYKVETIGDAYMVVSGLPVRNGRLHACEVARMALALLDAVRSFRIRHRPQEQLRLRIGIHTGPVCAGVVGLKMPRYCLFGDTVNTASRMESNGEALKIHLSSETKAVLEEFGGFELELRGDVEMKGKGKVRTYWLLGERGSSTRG
Experiment: Human NPRA cGMP activity assay (HTRF) in HEK293 cells overexpressing NPRA
Assay type: cell-based
How it was run: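 Tetracycline-induced (300 ng/mL, 48 h) T-Rex HEK293 cells expressing NPRA, 4000 cells/well, treated 40 min at room temperature with polypeptide (8 points, 10 μM to 1 pM) in HBSS/HEPES buffer with 0.5 mM IBMX, pH 7.4. cGMP by HTRF, normalised to 100 nM amidated rat ANP and buffer.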

[1] = assay buffer with 0.1% BSA, read-out: cGMP Assay (EC50, pM) w/BSA hNPRA
[2] = assay buffer with 0.1% casein, read-out: cGMP Assay (EC50, pM) w/Casein hNPRA
[3] = cGMP Assay (EC50, pM) w/BSA hNPRA, assay buffer with 0.1% BSA
[4] = cGMP Assay (EC50, pM) w/Casein hNPRA, assay buffer with 0.1% casein

Compound | EC50 [1] [pM] | EC50 [2] [pM] | EC50 [3] [pM] | EC50 [4] [pM]
CC[C@H](C)[C@@H]1NC(=O)[C@H](CCCNC(=N)N)NC(=O)[C@H](CC(=O)O)NC(=O)[C@H]([C@@H](C)CC)NC(=O)[C@H](CCCNC(=N)N)NC(=O)CNC(=O)CNC(=O)[C@H](Cc2ccccc2)NC(=O)[C@@H](NC(=O)[C@H](CO)NC(=O)[C@H](CO)NC(=O)[C@H](CCCNC(=N)N)NC(=O)[C@H](CCCNC(=N)N)NC(=O)[C@H](Cc2ccncc2)NC(=O)[C@H](CO)NC(=O)COCCOCCNC(=O)COCCOCCNC(=O)COCCOCCNC(=O)COCCOCCNC(=O)COCCOCCNC(=O)COCCOCCNC(=O)CNC(=O)[C@H](CCCCN)NC(=O)[C@H](CCC(=O)O)NC(=O)[C@H](CCCCN)NC(=O)[C@H](CCC(=O)O)NC(=O)[C@H](CCCCN)NC(=O)[C@H](CCC(=O)O)NC(=O)CC[C@H](NC(=O)CCCCCCCCCCCCCCCCCCC(=O)O)C(=O)O)CSCSC[C@@H](C(=O)N2CCC[C@H]2C(=O)N[C@@H](CO)C(=O)N[C@@H](Cc2ccccc2)C(=O)N[C@@H](CCCNC(=N)N)C(=O)N[C@@H](Cc2c[nH]cn2)C(=O)NCC(=O)NCC(=O)N[C@@H](CCCCN)C(=O)N[C@@H](CO)C(=O)N[C@@H](CO)C(=O)NCC(=O)N[C@@H](C)C(=O)N2CCC[C@H]2C(=O)N2CCC[C@H]2C(=O)N2CCC[C@H]2C(=O)N[C@@H](CO)C(N)=O)NC(=O)CNC(=O)[C@H](CC(C)C)NC(=O)CNC(=O)[C@H](CO)NC(=O)[C@H](CCC(N)=O)NC(=O)[C@H](Cc2c[nH]cn2)NC(=O)CNC1=O [Example 86] | 25200 | 1020 | – | –
CC[C@H](C)[C@@H]1NC(=O)[C@H](CCCNC(=N)N)NC(=O)[C@H](CC(=O)O)NC(=O)[C@H]([C@@H](C)CC)NC(=O)[C@H](CCCNC(=N)N)NC(=O)[C@H](CCCCN)NC(=O)CNC(=O)[C@H](Cc2ccccc2)NC(=O)[C@@H](NC(=O)[C@H](CO)NC(=O)[C@H](CO)NC(=O)[C@H](CCCNC(=N)N)NC(=O)CCNC(=O)[C@H](CCCCN)NC(=O)[C@H](CCC(=O)O)NC(=O)CCOCCOCCOCCOCCOCCOCCOCCOCCOCCOCCOCCOCCOCCOCCOCCOCCOCCOCCOCCOCCOCCOCCOCCOCCNC(=O)CNC(=O)[C@H](CCCCN)NC(=O)[C@H](CCC(=O)O)NC(=O)[C@H](CCCCN)NC(=O)[C@H](CCC(=O)O)NC(=O)[C@H](CCCCN)NC(=O)[C@H](CCC(=O)O)NC(=O)CC[C@H](NC(=O)CCCCCCCCCCCCCCCCCCC(=O)O)C(=O)O)CSCSC[C@@H](C(=O)N2CCC[C@H]2C(=O)N[C@@H](CO)C(=O)N[C@@H](Cc2ccccc2)C(=O)N[C@@H](CCCNC(=N)N)C(=O)N[C@@H](Cc2c[nH]cn2)C(=O)NCC(=O)NCC(=O)N2CCC[C@H]2C(N)=O)NC(=O)CNC(=O)[C@H](CC(C)C)NC(=O)CNC(=O)[C@H](CO)NC(=O)[C@H](CCC(N)=O)NC(=O)[C@H](Cc2c[nH]cn2)NC(=O)CNC1=O [Example 130] ({C20 diacid-γGlu}-EKEKEKG[PEG24]EK[βAla]RSSCFGKRIDRIGHQSGLGCPSFRHGGP-NH2; linker 15-31 via CH2) | 1270 | 669 | – | –
CC[C@H](C)[C@@H]1NC(=O)[C@H](CCCNC(=N)N)NC(=O)[C@H](CC(=O)O)NC(=O)[C@H]([C@@H](C)CC)NC(=O)[C@H](CCCNC(=N)N)NC(=O)CNC(=O)CNC(=O)[C@H](Cc2ccccc2)NC(=O)[C@@H](NC(=O)[C@H](CO)NC(=O)[C@H](CO)NC(=O)[C@H](CCCNC(=N)N)NC(=O)CCNC(=O)[C@H](CCCCN)NC(=O)[C@H](CCC(=O)O)NC(=O)CNC(=O)[C@H](CCCCN)NC(=O)[C@H](CCC(=O)O)NC(=O)[C@H](CCCCN)NC(=O)[C@H](CCC(=O)O)NC(=O)[C@H](CCCCN)NC(=O)[C@H](CCC(=O)O)NC(=O)CC[C@H](NC(=O)CCCCCCCCCCCCCCCCCCC(=O)O)C(=O)O)CSCSC[C@@H](C(=O)N2CCC[C@H]2C(=O)N[C@@H](CO)C(=O)N[C@@H](Cc2ccccc2)C(=O)N[C@@H](CCCNC(=N)N)C(=O)N[C@@H](Cc2c[nH]cn2)C(=O)NCC(=O)NCC(=O)N2CCC[C@H]2C(=O)N[C@@H](CO)C(=O)N[C@@H](CO)C(=O)NCC(=O)N[C@@H](C)C(=O)N2CCC[C@H]2C(=O)N2CCC[C@H]2C(=O)N2CCC[C@H]2C(=O)N[C@@H](CO)C(N)=O)NC(=O)CNC(=O)[C@H](CC(C)C)NC(=O)CNC(=O)[C@H](CO)NC(=O)[C@H](Cc2ccc(O)cc2)NC(=O)[C@H](Cc2c[nH]cn2)NC(=O)CNC1=O [Example 56] | – | – | 145000 | –
{C20 diacid-γGlu}-EKEKEKGEKPRSSCFG[Dap]RIDRIGHQSGLGCPSFRHGSPSSGAPPPS-NH2 (linker 14-30 via CH2) [Example 137] | 155000 | 769 | – | –
{C20 diacid-γGlu}-EKEKEKG[PEG24]S[4Pal]RRSSCFGGRIDRIGHQSGLGCPSFRHGGPSSGAPPPS-NH2 (linker 15-31 via CH2) [Example 61] | – | – | – | 912
CC[C@H](C)[C@@H]1NC(=O)[C@H](CCCNC(=N)N)NC(=O)[C@H](CC(=O)O)NC(=O)[C@H]([C@@H](C)CC)NC(=O)[C@H](CCCNC(=N)N)NC(=O)CNC(=O)CNC(=O)[C@H](Cc2ccccc2)NC(=O)[C@@H](NC(=O)[C@H](CO)NC(=O)[C@H](CO)NC(=O)[C@H](CCCNC(=N)N)NC(=O)CCNC(=O)[C@H](CCC(=O)O)NC(=O)[C@H](CCCCN)NC(=O)CNC(=O)[C@H](CCCCN)NC(=O)[C@H](CCC(=O)O)NC(=O)[C@H](CCCCN)NC(=O)[C@H](CCC(=O)O)NC(=O)[C@H](CCCCN)NC(=O)[C@H](CCC(=O)O)NC(=O)CC[C@H](NC(=O)CCCCCCCCCCCCCCCCCCC(=O)O)C(=O)O)CSCSC[C@@H](C(=O)N2CCC[C@H]2C(=O)N[C@@H](CO)C(=O)N[C@@H](Cc2ccccc2)C(=O)N[C@@H](CCCNC(=N)N)C(=O)N[C@@H](Cc2c[nH]cn2)C(=O)NCC(=O)NCC(=O)N2CCC[C@H]2C(=O)N[C@@H](CO)C(=O)N[C@@H](CO)C(=O)NCC(=O)N[C@@H](C)C(=O)N2CCC[C@H]2C(=O)N2CCC[C@H]2C(=O)N2CCC[C@H]2C(=O)N[C@@H](CO)C(N)=O)NC(=O)CNC(=O)[C@H](CC(C)C)NC(=O)CNC(=O)[C@H](CO)NC(=O)[C@H](Cc2ccc(O)cc2)NC(=O)[C@H](Cc2c[nH]cn2)NC(=O)CNC1=O [Example 58] | – | – | 104000 | 1220
{C20 diacid-γGlu}-EKEKEKGEKPRSSCFG[Dap]RIDRIGHYSGLGCPSFRHGSPSSGAPPPS-NH2 (linker 14-30 via CH2) [Example 136] | 100000 | 1380 | – | –
